Source: ChEMBL document CHEMBL5104159, “Synthesis and antitumor activity of a series of novel N-aryl-5-(2,2,2-trifluoroethoxy)-1,5-dihydro-2H-pyrrol-2-ones derivatives” (Bioorg Med Chem Lett, 2022)
Counter-ions that a name gives are not always drawn. The source made the active and inactive calls. The calls are words filed in the database; no cut-off is given here.

Experiments:
A549 = assay: Antiproliferative activity against human A549 cells assessed as inhibition of cell growth; assay type: functional, cell-based
MDA-MB-231 = assay: Antiproliferative activity against human MDA-MB-231 cells assessed as inhibition of cell growth; assay type: functional, cell-based
K562 [1] = assay: Antiproliferative activity against human K562 cells assessed as inhibition of cell growth; assay type: functional, cell-based
HeLa = assay: Antiproliferative activity against human HeLa cells assessed as inhibition of cell growth; assay type: functional, cell-based
K562 [2] = assay: Induction of apoptosis in human K562 cells assessed as late apoptotic cells at 10 uM by AnnexinV-FITC/propidium iodide staining based flow cytometric analysis (reference value: 5.1%); assay type: functional
K562 [3] = assay: Induction of cell cycle arrest in human K562 cells assessed as accumulation of cells at G1 phase at 10 uM by flow cytometry analysis (reference value: 73.3%); assay type: functional
K562 [4] = assay: Induction of cell cycle arrest in human K562 cells assessed as accumulation of cells at S phase at 10 uM by flow cytometry analysis (reference value: 21.32%); assay type: functional
K562 [5] = assay: Induction of cell cycle arrest in human K562 cells assessed as accumulation of cells at G2 phase at 10 uM by flow cytometry analysis (reference value: 5.38%); assay type: functional
K562 [6] = assay: Induction of apoptosis in human K562 cells assessed as viable cells at 10 uM by AnnexinV-FITC/propidium iodide staining based flow cytometric analysis (reference value: 86.4%); assay type: functional; details: read-out: Activity
K562 [7] = assay: Induction of apoptosis in human K562 cells assessed as early apoptotic cells at 10 uM by AnnexinV-FITC/propidium iodide staining based flow cytometric analysis (reference value: 2.56%); assay type: functional
K562 [8] = assay: Induction of apoptosis in human K562 cells assessed as dead cells at 10 uM by AnnexinV-FITC/propidium iodide staining based flow cytometric analysis (reference value: 5.94%); assay type: functional
[9] = Cytotoxicity against human L02 cells assessed as cell viability at 2 ug/ml relative to control; assay type: toxicity, cell-based; details: at 2 µg/mL, read-out: Activity
K562 [10] = assay: Induction of apoptosis in human K562 cells assessed as increase in HTRA2/omi level at 100 uM measured after 48 hrs by human apoptosis array analysis; assay type: functional, cell-based
K562 [11] = assay: Induction of apoptosis in human K562 cells assessed as increase in cleaved caspase-3 level at 100 uM measured after 48 hrs by human apoptosis array analysis; assay type: functional, cell-based
K562 [12] = assay: Induction of apoptosis in human K562 cells assessed as increase in Bax/Bcl-2 ratio at 100 uM measured after 48 hrs by human apoptosis array analysis; assay type: functional, cell-based
K562 [13] = assay: Induction of apoptosis in human K562 cells assessed as increase in FADD level at 100 uM measured after 48 hrs by human apoptosis array analysis; assay type: functional, cell-based
K562 [14] = assay: Induction of apoptosis in human K562 cells assessed as increase in pro-caspase 3 level at 100 uM measured after 48 hrs by human apoptosis array analysis; assay type: functional, cell-based
K562 [15] = assay: Induction of apoptosis in human K562 cells assessed as increase in SMAC/Diablo level at 100 uM measured after 48 hrs by human apoptosis array analysis; assay type: functional, cell-based

IC50 (A549) [µM]	IC50 (MDA-MB-231) [µM]	IC50 (K562 [1]) [µM]	IC50 (HeLa) [µM]	Compound	further results
23.4	15.3	24.6	> 100	O=C1C=CC(OCC(F)(F)F)N1c1ccccc1 (stereo unspecified)	
3.27	2.83	1.53	2.38	O=C1C=CC(OCC(F)(F)F)N1c1ccc([N+](=O)[O-])cc1 (stereo unspecified)	
				COc1ccc(/C=C\c2cc(OC)c(OC)c(OC)c2)cc1O [COMBRETASTATIN A4]	Activity (K562 [2]): 22.2%; Activity (K562 [3]): 21.92%; Activity (K562 [4]): 30.46%; Activity (K562 [5]): 47.61%; viability at 10 µM (K562 [6]): 32.7%; Activity (K562 [7]): 43.7%; Activity (K562 [8]): 1.36%
8.39	2.3	13.1	36.2	O=C1C=CC(OCC(F)(F)F)N1c1ccc(C(F)(F)F)cc1 (stereo unspecified)	
1.63	2.43	1.64	5.92	O=C1C=CC(OCC(F)(F)F)N1c1cc(Cl)cc(Cl)c1 (stereo unspecified)	
13.7	15.8	7.14	9.38	Cc1ccc(N2C(=O)C=CC2OCC(F)(F)F)cc1 (stereo unspecified)	
0.15		0.34	1.07	COc1cccc2c1C(=O)c1c(O)c3c(c(O)c1C2=O)C[C@@](O)(C(=O)CO)C[C@@H]3O[C@H]1C[C@H](N)[C@H](O)[C@H](C)O1 [DOXORUBICIN HYDROCHLORIDE]	
6.96	7.57	3.27	7.06	O=C1C=CC(OCC(F)(F)F)N1c1ccc(Br)cc1 (stereo unspecified)	
> 100	> 100	10.5	6.61	CC(C)NC1CC(=O)N(c2ccc(F)c(Cl)c2)C1OCC(F)(F)F (stereo unspecified)	viability at 2 ug/ml [9]: 102%
8.17	12.1	14.7	5.7	COC(=O)c1ccc(N2C(=O)C=CC2OCC(F)(F)F)cc1 (stereo unspecified)	
44.9	20.6	12	19.2	O=C1C=CC(OCC(F)(F)F)N1c1ccccc1F (stereo unspecified)	
9.57	6.64	6.62	5.8	CC(C)c1ccc(N2C(=O)C=CC2OCC(F)(F)F)cc1 (stereo unspecified)	
7.69	3.44	6.32	3.11	O=C1C=CC(OCC(F)(F)F)N1c1ccc(F)c(Cl)c1 (stereo unspecified)	viability at 2 ug/ml [9]: 58%
6.63	6.1	6.21	8.32	O=C1C=CC(OCC(F)(F)F)N1c1ccc(Cl)cc1F (stereo unspecified)	
4.3	2.41	4.48	1.89	O=C1C=CC(OC(C(F)(F)F)C(F)(F)F)N1c1ccc(Cl)cc1 (stereo unspecified)	
8.09	7.84	4.47	6.51	CCc1ccc(N2C(=O)C=CC2OCC(F)(F)F)cc1 (stereo unspecified)	

Compound	IC50 (A549) [µM]	IC50 (MDA-MB-231) [µM]	IC50 (K562 [1]) [µM]	IC50 (HeLa) [µM]	further results
O=C1c2c(O)ccc(O)c2C(=O)c2c(NCCNCCO)ccc(NCCNCCO)c21 [MITOXANTRONE]	0.07		0.14	0.04	
O=C1C=CC(OCC(F)(F)F)N1c1cc(F)cc(F)c1 (stereo unspecified)	5	7.84	0.52	8.46	Activity (K562 [2]): 22.3%; Activity (K562 [3]): 15.21%; Activity (K562 [4]): 30.58%; viability at 2 ug/ml [9]: 66%; Activity (K562 [5]): 54.21%; viability at 10 µM (K562 [6]): 50%; Activity (K562 [7]): 25.5%; Activity (K562 [8]): 2.26%
CC(C)(C)c1ccc(N2C(=O)C=CC2OCC(F)(F)F)cc1 (stereo unspecified)	8.5	1.86	0.07	18.1	Activity (K562 [2]): 22.8%; Activity (K562 [10]): Active; Activity (K562 [11]): Active; Activity (K562 [3]): 18.84%; Activity (K562 [4]): 0.98%; viability at 2 ug/ml [9]: 81%; Activity (K562 [5]): 80.18%; Activity (K562 [12]): Active; Activity (K562 [13]): Active; Activity (K562 [14]): Active; viability at 10 µM (K562 [6]): 41.5%; Activity (K562 [15]): Active; Activity (K562 [7]): 33.3%; Activity (K562 [8]): 2.4%
